Experimental data from article PMC9007462 (Journal of Medicinal Chemistry, 2022).

Legend:
Human ALDH1A1 [1] = molecular target: T1, Human ALDH1A1 (Homo sapiens, UniProt P00352); assay: ALDH1A1 inhibition, IC50 determination; type: biochemical
T1 construct: made in house
T1 sequence (P00352 1-501): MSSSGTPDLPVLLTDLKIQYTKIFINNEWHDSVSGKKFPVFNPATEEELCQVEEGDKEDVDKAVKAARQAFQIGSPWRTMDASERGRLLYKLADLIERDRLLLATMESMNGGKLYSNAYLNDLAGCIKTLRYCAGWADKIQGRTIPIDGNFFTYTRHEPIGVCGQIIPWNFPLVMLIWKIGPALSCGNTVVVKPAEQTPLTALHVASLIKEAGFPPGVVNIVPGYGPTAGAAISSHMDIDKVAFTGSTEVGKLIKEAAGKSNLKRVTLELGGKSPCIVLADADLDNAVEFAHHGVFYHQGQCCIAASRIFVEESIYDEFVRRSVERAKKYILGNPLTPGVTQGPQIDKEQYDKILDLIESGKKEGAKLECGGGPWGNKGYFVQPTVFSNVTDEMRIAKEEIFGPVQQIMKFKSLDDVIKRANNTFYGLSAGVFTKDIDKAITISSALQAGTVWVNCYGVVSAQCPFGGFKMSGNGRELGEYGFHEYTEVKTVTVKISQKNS
Experimental: (§1) Human ALDH1A1, ALDH1A3, and ALDH3A1 were cloned and recombinantly expressed from the pET-30 Xa/LIC vector. Protein purification was achieved by affinity chromatography on a nickel-charged chelating Sepharose Fast Flow 5-mL column (His Trap column, Cytiva), which specifically binds the protein due to its N-terminal (His)6 tag, using an ÄKTA FPLC system (Cytiva), as previously described.[55] Enzymes including the His tag were stored at −80 °C in 20 mM Tris/HCl and 0.5 M NaCl, pH 8.0, until use. Reaction buffers were as follows: ALDH1A1 was assayed in 50 mM HEPES, 0.5 mM EDTA, and 0.5 mM DTT, pH 8.0; ALDH1A3 was assayed in 50 mM HEPES, 30 mM MgCl2, and 5 mM DTT, pH 8.0; and ALDH3A1 was assayed in 50 mM Tris–HCl and 5 mM DTT, pH 8.0. Activity under standard conditions was measured fluorimetrically at 25 °C using a Cary Eclipse (Varian) fluorimeter to follow the purification procedure and to check the enzyme concentration before each kinetic experiment. The fluorescence of NADH was characterized at 460 nm with excitation at 340 nm, and 5 μM NAD(P)H was added as an internal standard to obtain the absolute reaction rates.[55] Standard activity was measured at saturating concentrations of substrate using 30 μM hexanal (ALDH1A1), 250 μM hexanal (ALDH1A3), or 250 μM 4-NBA (ALDH3A1). NAD^+ was 500 μM for ALDH1A1 and ALDH1A3, and NADP^+ was 1 mM for ALDH3A1.
In order to determine the IC50 values, reaction rates were determined at various concentrations of inhibitor at a fixed concentration of substrate. As substrates for ALDH1A1, ALDH1A3, and ALDH3A1, 5 μM hexanal, 6 μM hexanal, and 31 μM 4-NBA, respectively, were used. The IC50 values were calculated by nonlinear fitting of the obtained data to a sigmoidal plot using GraFit 5.0 (Erithacus software), with the following 4-parameter equation [drawing 2] , where y is the specific activity, x is the inhibitor concentration, background is the minimum y value, range is the fitted uninhibited value minus the background, and s is the slope factor. Values are expressed as the mean ± SE.

Human ALDH1A1 [2] = molecular target: T1, Human ALDH1A1; assay: Inhibition screening, single point at 10 μM, ALDH1A1; type: biochemical; conditions: 10 μM compound; 5 μM hexanal (Figure S1)
Experimental: as §1
All compounds tested were dissolved in DMSO and assayed at a final concentration of 1% (v/v) DMSO. […] For the initial screening, the enzymatic activity was measured in 96-well plates (final volume of 200 μL) in a Victor 3 Multilabel Plate Reader (Perkin Elmer), by monitoring the fluorescence of the NAD(P)H produced during the reaction (excitation at 340 nm and emission at 460 nm). Alternatively, the enzymatic activity was measured in a Varian Cary 400 UV–vis spectrophotometer, by monitoring the increase in the absorbance of NAD(P)H at 340 nm (ε = 6.22 mM^–1·cm^–1) or in a Cary Eclipse Varian fluorimeter, as described above. […] For ALDH1A1, 5 μM hexanal (Sigma) was used. For ALDH1A3, 10 and 250 μM hexanal (Sigma) were used. For ALDH3A1, 4-NBA (Sigma) was used at 31 and 250 μM. All substrates were prepared in the corresponding assay buffer at a concentration of 2 mM and further diluted to reach the final concentrations required per experiment. The concentration of the enzyme was kept from 50- to 100-fold lower than that of the substrate for all enzymatic assays.

SMILES: CCCN(CCC)c1ccc(C=O)cc1Br [Compound 14, 3-Bromo-4-(dipropylamino)benzaldehyde]
- IC50 (Human ALDH1A1 [1]; 5 μM hexanal as substrate, mean ± SE): 7.08 ± 0.7 µM
- fold less effective than DEAB in inhibiting ALDH1A1 (Human ALDH1A1 [1]; ratio of IC50 values vs DEAB): approximately 15 fold
- remaining ALDH1A1 activity (Human ALDH1A1 [2]): 45%
